In ChEMBL document CHEMBL5214990, “Novel Aryl Alkamidazole Derivatives as Multifunctional Antifungal Inhibitors: Design, Synthesis, and Biological Evaluation” (J Med Chem, 2022):
Values after ≈ are worked out from the molar mass of the structure shown.

Legend:
Format in all cases: functional
Candida albicans [1] = test: Antifungal activity against Candida albicans ATCC SC5314 assessed as inhibition of fungal growth measured after 72 hrs by CLSI based liquid medium dilution method
Cryptococcus neoformans = test: Antifungal activity against Cryptococcus neoformans assessed as inhibition of fungal growth measured after 72 hrs by CLSI based liquid medium dilution method
Pichia kudriavzevii = test: Antifungal activity against Candida krusei ATCC 6258 assessed as inhibition of fungal growth measured after 72 hrs by CLSI based liquid medium dilution method
Candida tropicalis = test: Antifungal activity against Candida tropicalis ATCC 1369 assessed as inhibition of fungal growth measured after 72 hrs by CLSI based liquid medium dilution method
Aspergillus fumigatus = test: Antifungal activity against Aspergillus fumigatus KM8001 assessed as inhibition of fungal growth measured after 72 hrs by CLSI based liquid medium dilution method
Candida albicans [2] = test: Antifungal activity against fluconazole-resistant Candida albicans 17# assessed as inhibition of fungal growth measured after 72 hrs by CLSI based liquid medium dilution method
Candida albicans [3] = test: Antifungal activity against fluconazole-resistant Candida albicans CaR assessed as inhibition of fungal growth measured after 72 hrs by CLSI based liquid medium dilution method
Candida albicans [4] = test: Antifungal activity against fluconazole-resistant Candida albicans 632 assessed as inhibition of fungal growth measured after 72 hrs by CLSI based liquid medium dilution method
Candida albicans [5] = test: Antifungal activity against fluconazole-resistant Candida albicans 901 assessed as inhibition of fungal growth measured after 72 hrs by CLSI based liquid medium dilution method
Candida albicans [6] = test: Antifungal activity against fluconazole-resistant Candida albicans 904 assessed as inhibition of fungal growth measured after 72 hrs by CLSI based liquid medium dilution method

MIC50 (Candida albicans [1])	MIC50 (Cryptococcus neoformans)	MIC50 (Pichia kudriavzevii)	MIC50 (Candida tropicalis)	MIC50 (Aspergillus fumigatus)	Compound	MIC50 (Candida albicans [2])	MIC50 (Candida albicans [3])	MIC50 (Candida albicans [4])	MIC50 (Candida albicans [5])	MIC50 (Candida albicans [6])
1 µg/mL (≈ 2.4 µM)	2 µg/mL (≈ 4.8 µM)	0.5 µg/mL (≈ 1.2 µM)	2 µg/mL (≈ 4.8 µM)	> 8 µg/mL	C[C@H](C(=O)N[C@H](Cn1cncn1)c1ccccc1)c1ccc(CC2CCCC2=O)cc1 (stereo not given in full)	–	–	–	–	–
1 µg/mL (≈ 2.36 µM)	2 µg/mL (≈ 4.71 µM)	0.5 µg/mL (≈ 1.18 µM)	1 µg/mL (≈ 2.36 µM)	2 µg/mL (≈ 4.71 µM)	C[C@H](C(=O)N[C@H](Cn1cncn1)c1ccccc1)c1cccc(C(=O)c2ccccc2)c1	–	–	–	–	–
0.5 µg/mL (≈ 0.976 µM)	0.5 µg/mL (≈ 0.976 µM)	2 µg/mL (≈ 3.9 µM)	0.25 µg/mL (≈ 0.488 µM)	4 µg/mL (≈ 7.81 µM)	COc1ccc2cc([C@H](C)C(=O)N(C)CC(O)(Cn3ccnc3)c3ccc(Cl)cc3Cl)ccc2c1 (stereo not given in full)	–	–	–	–	–
0.5 µg/mL (≈ 1.05 µM)	2 µg/mL (≈ 4.18 µM)	1 µg/mL (≈ 2.09 µM)	1 µg/mL (≈ 2.09 µM)	> 8 µg/mL	COc1ccc2cc([C@H](C)C(=O)N(C)CC(O)(Cn3ccnc3)c3ccc(Cl)cc3)ccc2c1 (stereo not given in full)	–	–	–	–	–
0.5 µg/mL (≈ 0.996 µM)	0.5 µg/mL (≈ 0.996 µM)	0.5 µg/mL (≈ 0.996 µM)	1 µg/mL (≈ 1.99 µM)	4 µg/mL (≈ 7.97 µM)	C[C@H](C(=O)N(C)CC(O)(Cn1ccnc1)c1ccc(Cl)cc1)c1cccc(C(=O)c2ccccc2)c1 (stereo not given in full)	–	–	–	–	–
2 µg/mL (≈ 4.6 µM)	2 µg/mL (≈ 4.6 µM)	1 µg/mL (≈ 2.3 µM)	2 µg/mL (≈ 4.6 µM)	> 8 µg/mL	C[C@H](C(=O)OC(Cn1ccnc1)c1ccc(F)cc1)c1ccc(CC2CCCC2=O)cc1 (stereo not given in full)	–	–	–	–	–
0.5 µg/mL (≈ 1.03 µM)	0.5 µg/mL (≈ 1.03 µM)	1 µg/mL (≈ 2.06 µM)	0.5 µg/mL (≈ 1.03 µM)	> 8 µg/mL	C[C@H](C(=O)N(C)CC(O)(Cn1ccnc1)c1ccc(F)cc1)c1cccc(C(=O)c2ccccc2)c1 (stereo not given in full)	–	–	–	–	–
1 µg/mL (≈ 2.36 µM)	0.5 µg/mL (≈ 1.18 µM)	1 µg/mL (≈ 2.36 µM)	2 µg/mL (≈ 4.72 µM)	> 8 µg/mL	C[C@H](C(=O)N[C@H](Cn1ccnc1)c1ccccc1)c1cccc(C(=O)c2ccccc2)c1	–	–	–	–	–
1 µg/mL (≈ 2.38 µM)	1 µg/mL (≈ 2.38 µM)	0.5 µg/mL (≈ 1.19 µM)	2 µg/mL (≈ 4.76 µM)	> 8 µg/mL	COc1ccc2cc([C@H](C)C(=O)OC(Cn3cnnn3)c3ccc(F)cc3)ccc2c1 (stereo not given in full)	–	–	–	–	–
1 µg/mL (≈ 2.22 µM)	0.5 µg/mL (≈ 1.11 µM)	0.25 µg/mL (≈ 0.554 µM)	1 µg/mL (≈ 2.22 µM)	2 µg/mL (≈ 4.44 µM)	C[C@H](C(=O)OC(Cn1cnnn1)c1ccc(Cl)cc1)c1ccc(-c2ccccc2)c(F)c1 (stereo not given in full)	–	–	–	–	–
0.5 µg/mL (≈ 1.19 µM)	1 µg/mL (≈ 2.39 µM)	2 µg/mL (≈ 4.78 µM)	0.5 µg/mL (≈ 1.19 µM)	4 µg/mL (≈ 9.56 µM)	COc1ccc2cc([C@H](C)C(=O)OC(Cn3ccnc3)c3ccc(F)cc3)ccc2c1 (stereo not given in full)	–	–	–	–	–
1 µg/mL (≈ 2.29 µM)	2 µg/mL (≈ 4.58 µM)	0.5 µg/mL (≈ 1.15 µM)	2 µg/mL (≈ 4.58 µM)	> 8 µg/mL	C[C@H](C(=O)OC(Cn1cnnn1)c1ccc(F)cc1)c1ccc(CC2CCCC2=O)cc1 (stereo not given in full)	–	–	–	–	–
2 µg/mL (≈ 4.42 µM)	4 µg/mL (≈ 8.83 µM)	2 µg/mL (≈ 4.42 µM)	1 µg/mL (≈ 2.21 µM)	> 8 µg/mL	C[C@H](C(=O)OC(Cn1cnnn1)c1ccc(Cl)cc1)c1ccc(CC2CCCC2=O)cc1 (stereo not given in full)	–	–	–	–	–
0.5 µg/mL (≈ 1.12 µM)	0.5 µg/mL (≈ 1.12 µM)	0.5 µg/mL (≈ 1.12 µM)	1 µg/mL (≈ 2.25 µM)	> 8 µg/mL	C[C@H](C(=O)OC(Cn1cnnn1)c1ccc(F)cc1)c1cccc(C(=O)c2ccccc2)c1 (stereo not given in full)	–	–	–	–	–
0.5 µg/mL (≈ 1.13 µM)	0.5 µg/mL (≈ 1.13 µM)	0.5 µg/mL (≈ 1.13 µM)	2 µg/mL (≈ 4.52 µM)	4 µg/mL (≈ 9.04 µM)	C[C@H](C(=O)OC(Cn1ccnc1)c1ccc(F)cc1)c1cccc(C(=O)c2ccccc2)c1 (stereo not given in full)	–	–	–	–	–
0.25 µg/mL (≈ 0.526 µM)	0.5 µg/mL (≈ 1.05 µM)	0.25 µg/mL (≈ 0.526 µM)	0.25 µg/mL (≈ 0.526 µM)	4 µg/mL (≈ 8.41 µM)	C[C@H](C(=O)N(C)CC(O)(Cn1ccnc1)c1ccc(F)cc1)c1ccc(-c2ccccc2)c(F)c1 (stereo not given in full)	–	–	–	–	–
0.5 µg/mL (≈ 1.15 µM)	1 µg/mL (≈ 2.3 µM)	0.5 µg/mL (≈ 1.15 µM)	0.25 µg/mL (≈ 0.575 µM)	4 µg/mL (≈ 9.21 µM)	C[C@H](C(=O)OC(Cn1cnnn1)c1ccc(F)cc1)c1ccc(-c2ccccc2)c(F)c1 (stereo not given in full)	–	–	–	–	–
0.25 µg/mL (≈ 0.624 µM)	1 µg/mL (≈ 2.5 µM)	0.25 µg/mL (≈ 0.624 µM)	0.25 µg/mL (≈ 0.624 µM)	4 µg/mL (≈ 9.99 µM)	COc1ccc2cc([C@H](C)C(=O)N[C@H](Cn3cncn3)c3ccccc3)ccc2c1	–	–	–	–	–
0.5 µg/mL (≈ 1.08 µM)	1 µg/mL (≈ 2.17 µM)	1 µg/mL (≈ 2.17 µM)	0.25 µg/mL (≈ 0.542 µM)	> 8 µg/mL	COc1ccc2cc([C@H](C)C(=O)N(C)CC(O)(Cn3ccnc3)c3ccc(F)cc3)ccc2c1 (stereo not given in full)	–	–	–	–	–
2 µg/mL (≈ 4.81 µM)	1 µg/mL (≈ 2.41 µM)	0.5 µg/mL (≈ 1.2 µM)	0.5 µg/mL (≈ 1.2 µM)	4 µg/mL (≈ 9.63 µM)	C[C@H](C(=O)N[C@H](Cn1ccnc1)c1ccccc1)c1ccc(CC2CCCC2=O)cc1 (stereo not given in full)	–	–	–	–	–
0.5 µg/mL (≈ 1.21 µM)	0.5 µg/mL (≈ 1.21 µM)	0.25 µg/mL (≈ 0.605 µM)	0.5 µg/mL (≈ 1.21 µM)	4 µg/mL (≈ 9.67 µM)	C[C@H](C(=O)N[C@H](Cn1ccnc1)c1ccccc1)c1ccc(-c2ccccc2)c(F)c1	–	–	–	–	–
0.5 µg/mL (≈ 1.14 µM)	0.5 µg/mL (≈ 1.14 µM)	0.25 µg/mL (≈ 0.572 µM)	0.5 µg/mL (≈ 1.14 µM)	4 µg/mL (≈ 9.16 µM)	COc1ccc2cc([C@H](C)C(=O)OC(Cn3cnnn3)c3ccc(Cl)cc3)ccc2c1 (stereo not given in full)	–	–	–	–	–
0.25 µg/mL (≈ 0.475 µM)	0.5 µg/mL (≈ 0.95 µM)	0.5 µg/mL (≈ 0.95 µM)	0.25 µg/mL (≈ 0.475 µM)	4 µg/mL (≈ 7.6 µM)	C[C@H](C(=O)N(C)CC(O)(Cn1ccnc1)c1ccc(Cl)cc1Cl)c1ccc(-c2ccccc2)c(F)c1 (stereo not given in full)	–	–	–	–	–
0.5 µg/mL (≈ 1.21 µM)	0.5 µg/mL (≈ 1.21 µM)	0.5 µg/mL (≈ 1.21 µM)	0.25 µg/mL (≈ 0.603 µM)	4 µg/mL (≈ 9.65 µM)	C[C@H](C(=O)N[C@H](Cn1cncn1)c1ccccc1)c1ccc(-c2ccccc2)c(F)c1	–	–	–	–	–
0.5 µg/mL (≈ 1.08 µM)	0.5 µg/mL (≈ 1.08 µM)	1 µg/mL (≈ 2.17 µM)	2 µg/mL (≈ 4.34 µM)	> 8 µg/mL	C[C@H](C(=O)OC(Cn1cnnn1)c1ccc(Cl)cc1)c1cccc(C(=O)c2ccccc2)c1 (stereo not given in full)	–	–	–	–	–
1 µg/mL (≈ 2.5 µM)	1 µg/mL (≈ 2.5 µM)	0.5 µg/mL (≈ 1.25 µM)	0.5 µg/mL (≈ 1.25 µM)	> 8 µg/mL	COc1ccc2cc([C@H](C)C(=O)N[C@H](Cn3ccnc3)c3ccccc3)ccc2c1	–	–	–	–	–

Compound	MIC50 (Candida albicans [1])	MIC50 (Cryptococcus neoformans)	MIC50 (Pichia kudriavzevii)	MIC50 (Candida tropicalis)	MIC50 (Aspergillus fumigatus)	MIC50 (Candida albicans [2])	MIC50 (Candida albicans [3])	MIC50 (Candida albicans [4])	MIC50 (Candida albicans [5])	MIC50 (Candida albicans [6])
CC(=O)N1CCN(c2ccc(OCC3COC(Cn4ccnc4)(c4ccc(Cl)cc4Cl)O3)cc2)CC1 (stereo not given) [KETOCONAZOLE]	1 µg/mL (≈ 1.88 µM)	1 µg/mL (≈ 1.88 µM)	0.5 µg/mL (≈ 0.941 µM)	0.5 µg/mL (≈ 0.941 µM)	> 8 µg/mL	4 µg/mL (≈ 7.53 µM)	4 µg/mL (≈ 7.53 µM)	> 8 µg/mL	4 µg/mL (≈ 7.53 µM)	> 8 µg/mL
